33 molecules from ChEMBL document CHEMBL5376003, “Structure-Activity Relationship of FL118 Platform Position 7 Versus Position 9-Derived Compounds and Their Mechanism of Action and Antitumor Activity” (J Med Chem, 2023) can be followed below.

A value given as a limit tells only on which side of the number the result lay.

The IC50 is the point on the concentration scale where inhibition reaches its midpoint.

Holding throughout (type): functional, cell-based
In experiment [1] the test system is HCT-116. Description: Growth inhibition of human HCT-116 cells incubated for 48 hrs by MTT reagent based ELISA reader analysis. Particulars: HCT-116, 48 h.
Experiment [2] relates to HepG2. Description: Growth inhibition of human HepG2 cells incubated for 48 hrs by MTT reagent based ELISA reader analysis. As to conditions: HepG2, 48 h.
Experiment [3] concerns MCF7. Description: Growth inhibition of human MCF7 cells incubated for 48 hrs by MTT reagent based ELISA reader analysis. Particulars: MCF7, 48 h. Background: Tetrazolium dyes change colour on reduction, which living cells bring about.
Experiment [4] relates to A549. Description: Growth inhibition of human A549 cells incubated for 48 hrs by MTT reagent based ELISA reader analysis. As to conditions: A549, 48 h.
For experiment [5], the system named is HeLa. Description: Growth inhibition of human HeLa cells incubated for 48 hrs by MTT reagent based ELISA reader analysis.

Turning to `CC[C@@]1(O)C(=O)OCc2c1cc1n(c2=O)Cc2c-1nc1cc3c(cc1c2-c1ccc(C(C)(C)C)cc1)OCO3`, the IC50 in experiment [1] is 0.0832 µM; in experiment [2], 0.14 µM; in experiment [3], 0.16 µM; in experiment [4], 0.064 µM; in experiment [5], above 1 µM.
In the same order, the values of `CCCc1ccc(-c2c3c(cc4nc5c(cc24)Cn2c-5cc4c(c2=O)COC(=O)[C@]4(O)CC)OCO3)cc1` are 0.951 µM, above 1 µM, above 1 µM, 0.423 µM and above 1 µM.
Taken in the same sequence, the figures for `CCOc1cccc(-c2c3c(cc4nc5c(cc24)Cn2c-5cc4c(c2=O)COC(=O)[C@]4(O)CC)OCO3)c1` were 0.256 µM, 0.199 µM, 0.157 µM, 0.111 µM and above 1 µM.
Taken in the same sequence, the figures for `CC[C@@]1(O)C(=O)OCc2c1cc1n(c2=O)Cc2cc3c(-c4ccc5c(c4)OCO5)c4c(cc3nc2-1)OCO4` were 0.0592 µM, 0.351 µM, 0.0326 µM, 0.111 µM and 0.0325 µM.
For the molecule `CC[C@@]1(O)C(=O)OCc2c1cc1n(c2=O)Cc2c-1nc1cc3c(cc1c2-c1cccc(SC)c1)OCO3`, the IC50 in experiment [1] stood at 0.0461 µM; in experiment [2], 0.0786 µM; in experiment [3], 0.0346 µM; in experiment [4] it was 0.132 µM; in experiment [5], 0.125 µM.
For the molecule `CC[C@@]1(O)C(=O)OCc2c1cc1n(c2=O)Cc2cc3c(-c4ccc(C(C)(C)C)cc4)c4c(cc3nc2-1)OCO4`, the 50% inhibitory concentration (IC50) is above 1 µM in experiment [1]; above 1 µM in experiment [2]; above 1 µM in experiment [3]; 0.91 µM in experiment [4]; 0.674 µM in experiment [5].
As to `CC[C@@]1(O)C(=O)OCc2c1cc1n(c2=O)Cc2c-1nc1cc3c(cc1c2-c1cc(C)cc(C)c1)OCO3`, the IC50 in experiment [1] turned out to be 0.064 µM; in experiment [2], 0.0454 µM; in experiment [3], 0.0868 µM; in experiment [4] it was 0.036 µM; in experiment [5], 0.0336 µM.
Taken in the same sequence, the figures for `CC[C@@]1(O)C(=O)OCc2c1cc1n(c2=O)Cc2c-1nc1cc3c(cc1c2-c1ccc([Si](C)(C)C)cc1)OCO3` were 0.0563 µM, 0.074 µM, 0.863 µM, 0.321 µM and above 1 µM.
On to `CC[C@@]1(O)C(=O)OCc2c1cc1n(c2=O)Cc2c-1nc1cc3c(cc1c2-c1cc(OC)c(OC)c(OC)c1)OCO3`, for which the IC50 is 0.0396 µM in experiment [1]; 0.738 µM in experiment [2]; 0.101 µM in experiment [3]; 0.14 µM in experiment [4]; 0.2 µM in experiment [5].
Consider `CC[C@@]1(O)C(=O)OCc2c1cc1n(c2=O)Cc2c-1nc1cc3c(cc1c2-c1ccc(SC)cc1)OCO3`, for which the concentration for half-maximal inhibition (IC50) came out at 0.0618 µM in experiment [1]; 0.0519 µM in experiment [2]; 0.0534 µM in experiment [3]; 0.0273 µM in experiment [4]; 0.0587 µM in experiment [5].
Regarding `CCOc1cccc(-c2c3c(nc4cc5c(cc24)OCO5)-c2cc4c(c(=O)n2C3)COC(=O)[C@]4(O)CC)c1`, the IC50 in experiment [1] is 0.0559 µM; in experiment [2], 0.28 µM; in experiment [3], 0.0478 µM; in experiment [4] it was 0.0294 µM; in experiment [5], 0.0522 µM.
In the same order, the values of `CC[C@@]1(O)C(=O)OCc2c1cc1n(c2=O)Cc2cc3c(-c4ccc(C(C)C)cc4)c4c(cc3nc2-1)OCO4` are above 1 µM, above 1 µM, 0.8 µM, 0.765 µM and above 1 µM.
In the same order, the values of `CC[C@@]1(O)C(=O)OCc2c1cc1n(c2=O)Cc2c-1nc1cc3c(cc1c2-c1ccc(C(C)C)cc1)OCO3` are 0.4 µM, 0.825 µM, 0.122 µM, 0.052 µM and 0.0614 µM.
Take `CC[C@@]1(O)C(=O)OCc2c1cc1n(c2=O)Cc2c-1nc1cc3c(cc1c2-c1cccc(OC)c1)OCO3`: the IC50 in experiment [1] amounted to 0.0485 µM; in experiment [2], 0.0148 µM; in experiment [3] it was 0.0958 µM; in experiment [4], 0.0214 µM; in experiment [5] it was 0.0883 µM.
As for `CC[C@@]1(O)C(=O)OCc2c1cc1n(c2=O)Cc2cc3c(-c4cccc(OC)c4)c4c(cc3nc2-1)OCO4`, the half-inhibitory concentration (IC50) is above 1 µM in experiment [1]; above 1 µM in experiment [2]; above 1 µM in experiment [3]; 0.991 µM in experiment [4]; above 1 µM in experiment [5].
With `CCCc1ccc(-c2c3c(nc4cc5c(cc24)OCO5)-c2cc4c(c(=O)n2C3)COC(=O)[C@]4(O)CC)cc1`, the IC50 in experiment [1] came to 0.118 µM; in experiment [2], 0.827 µM; in experiment [3] it was 0.064 µM; in experiment [4], 0.051 µM; in experiment [5], 0.0594 µM.
Taken in the same sequence, the figures for `CCOc1ccc(-c2c3c(cc4nc5c(cc24)Cn2c-5cc4c(c2=O)COC(=O)[C@]4(O)CC)OCO3)cc1` were 0.176 µM, above 1 µM, above 1 µM, 0.296 µM and above 1 µM.
Turning to `CC[C@@]1(O)C(=O)OCc2c1cc1n(c2=O)Cc2cc3c(-c4ccc(C)c(C)c4)c4c(cc3nc2-1)OCO4`, the IC50 is 0.773 µM in experiment [1]; above 1 µM in experiment [2]; above 1 µM in experiment [3]; 0.259 µM in experiment [4]; above 1 µM in experiment [5].
With `CC[C@@]1(O)C(=O)OCc2c1cc1n(c2=O)Cc2c-1nc1cc3c(cc1c2-c1ccc(OC(C)C)cc1)OCO3`, the IC50 in experiment [1] is below 0.0064 µM; in experiment [2] it was 0.16 µM; in experiment [3], 0.0528 µM; in experiment [4], 0.142 µM; in experiment [5], 0.506 µM.
In the same order, the values of `CCCOc1ccc(-c2c3c(nc4cc5c(cc24)OCO5)-c2cc4c(c(=O)n2C3)COC(=O)[C@]4(O)CC)cc1` are 0.562 µM, 0.993 µM, 0.053 µM, 0.225 µM and above 1 µM.
Taken in the same sequence, the figures for `CC[C@@]1(O)C(=O)OCc2c1cc1n(c2=O)Cc2cc3c(-c4cc(C)cc(C)c4)c4c(cc3nc2-1)OCO4` were 0.709 µM, 0.292 µM, 0.16 µM, 0.107 µM and 0.115 µM.
Taken in the same sequence, the figures for `CCCCc1ccc(-c2c3c(cc4nc5c(cc24)Cn2c-5cc4c(c2=O)COC(=O)[C@]4(O)CC)OCO3)cc1` were 0.759 µM, above 1 µM, above 1 µM, 0.541 µM and above 1 µM.
As for `CCCOc1ccc(-c2c3c(cc4nc5c(cc24)Cn2c-5cc4c(c2=O)COC(=O)[C@]4(O)CC)OCO3)cc1`, the IC50 in experiment [1] was 0.564 µM; in experiment [2], above 1 µM; in experiment [3] it was above 1 µM; in experiment [4], 1 µM; in experiment [5], 0.531 µM.
Take `CC[C@@]1(O)C(=O)OCc2c1cc1n(c2=O)Cc2cc3c(-c4ccc(SC)cc4)c4c(cc3nc2-1)OCO4`: the IC50 in experiment [1] came out at 0.582 µM; in experiment [2], 0.303 µM; in experiment [3] it was 0.158 µM; in experiment [4], 0.22 µM; in experiment [5], 0.161 µM.
Taken in the same sequence, the figures for `CC[C@@]1(O)C(=O)OCc2c1cc1n(c2=O)Cc2cc3c(-c4ccc(OC)cc4)c4c(cc3nc2-1)OCO4` were 0.163 µM, 0.527 µM, 0.161 µM, 0.163 µM and above 1 µM.
In the same order, the values of `CC[C@@]1(O)C(=O)OCc2c1cc1n(c2=O)Cc2c-1nc1cc3c(cc1c2-c1cccc(OC(C)C)c1)OCO3` are 0.793 µM, 1 µM, 0.0641 µM, 0.4 µM and 0.143 µM.
In the same order, the values of `CC[C@@]1(O)C(=O)OCc2c1cc1n(c2=O)Cc2cc3c(-c4cc(OC)c(OC)c(OC)c4)c4c(cc3nc2-1)OCO4` are 0.137 µM, 0.952 µM, 0.757 µM, 1 µM and 0.14 µM.
Take `CCCCOc1ccc(-c2c3c(cc4nc5c(cc24)Cn2c-5cc4c(c2=O)COC(=O)[C@]4(O)CC)OCO3)cc1`: the 50% inhibitory concentration (IC50) in experiment [1] turned out to be 0.782 µM; in experiment [2], 0.569 µM; in experiment [3] it was 0.344 µM; in experiment [4] it was 0.617 µM; in experiment [5] it was 0.593 µM.
In the same order, the values of `CCc1ccc(-c2c3c(cc4nc5c(cc24)Cn2c-5cc4c(c2=O)COC(=O)[C@]4(O)CC)OCO3)cc1` are 0.697 µM, above 1 µM, above 1 µM, 0.265 µM and above 1 µM.
Taken in the same sequence, the figures for `CC[C@@]1(O)C(=O)OCc2c1cc1n(c2=O)Cc2c-1nc1cc3c(cc1c2-c1ccc(C)c(C)c1)OCO3` were 0.0223 µM, 0.064 µM, 0.0453 µM, 0.0221 µM and 0.364 µM.
In the same order, the values of `CCSc1ccc(-c2c3c(nc4cc5c(cc24)OCO5)-c2cc4c(c(=O)n2C3)COC(=O)[C@]4(O)CC)cc1` are 0.0913 µM, 0.3 µM, 0.0725 µM, 0.0291 µM and 0.0958 µM.
For `CC[C@@]1(O)C(=O)OCc2c1cc1n(c2=O)Cc2cc3c(-c4cccc(SC)c4)c4c(cc3nc2-1)OCO4`, the IC50 in experiment [1] was 0.134 µM; in experiment [2] it was 0.19 µM; in experiment [3], 0.0985 µM; in experiment [4], 0.133 µM; in experiment [5] it was 0.0323 µM.
Taken in the same sequence, the figures for `CCCCOc1ccc(-c2c3c(nc4cc5c(cc24)OCO5)-c2cc4c(c(=O)n2C3)COC(=O)[C@]4(O)CC)cc1` were 0.235 µM, above 1 µM, above 1 µM, above 1 µM and above 1 µM.
